Results from US20200199174A1, “NOVEL FLUORESCENT LABELING METHOD” (priority 2017, published 2020).

Key:
[1] = literature (Zheng et al. 2014); cited from earlier work
5D4 = assay: Fluorescence change characteristics of fluorophore-DNP pair in presence and absence of 5D4; format: biochemical, mouse; details: recombinant 5D4 expressed/purified in E. coli
Experimental: The anti-DNP scFv was expressed and purified as a fusion protein of maltose-binding protein. Escherichia coli BL21 (DE3) was transformed with the pMalc5E vector (pMalc5E-scFv) into which the purification object scFv sequence was introduced, and was cultured overnight on an LB medium plate including 100 μg/mL of ampicillin. A single colony was picked up and cultured overnight in 5 mL of a liquid LB medium including 100 μg/mL of ampicillin, and 1 mL of the resultant culture liquid was transferred to 100 mL of LB medium including 100 μg/mL of ampicillin. Shake culturing was performed at 200 rpm and a temperature of 37° C. until an optical density at 600 nm of 0.8 was reached, and after shake culturing was performed for 30 minutes at 15° C., IPTG was added to give a final concentration of 0.5 mM, and shake culturing was continued overnight. The E. coli were recovered after culturing and were disrupted using a sonicator. […] An eluate was replaced with PBS, and yield was quantified by the Bradford method, after which the eluate was subjected to the measurements described below.
RNA was extracted from the hybridomas of the resultant four clones, and cDNA fragments of the variable regions of the light chains and heavy chains of monoclonal antibodies were obtained by reverse transcription. The cDNA fragments of the variable regions of the light chains and heavy chains were connected via a linker sequence by overlap PCR, and scFv constructs were constructed only from subclones (4E10 and 5D4) derived from wells 1E10 and 3B12, respectively. […] The nucleic acid sequence of the cDNA sequence coding for 5D4 was identified by sequencing (SEQ ID NO: 8), an amino acid sequence determined from the result thereof was analyzed using the IMGT database (http://www.imgt.org/), and a […] region was specified (FIG. 4).
This fluorescence characteristic is similar to that of Cy5 dye, which is widely used in fluorescence imaging in cells. In the presence of 5D4, the fluorescence intensity of 6SiR-DNP was increased by a factor of 98 relative to the fluorescence intensity thereof in the absence of 5D4 (FIG. 6B). When fluorescence quantum yield of 6SiR-DNP in a state in which 6SiR-DNP is bound to 5D4 was measured, the fluorescence quantum yield in the presence of an excess of 5D4 was 0.57. This value for the fluorescence quantum yield is large, and is equal to or greater than that of Cy5 (quantum yield=0.2-0.4) and Cy5.5 (quantum yield=0.24), which are also highly versatile fluorescent dyes in cell labeling experiments (Q. Zheng et al., Ultra-stable organic fluorophores for single-molecule research. Chem Soc Rev 43, 1044-1056 (2014).).

[2] = system: 5D4 fusion protein with TagRFP in HEK293T cells; assay: Expression test of anti-DNP scFv in cultured cells, fluorescent labeling of cytoplasm; format: cell-based; details: 1 μM, 10 minutes room temperature, washed with HBS, HEK293T cells expressing TagRFP-5D4
Experimental: HEK293T cells and HeLa cells were cultured in Dulbecco's Modified Eagle's Medium (DMEM, Wako) including 10% fetal bovine serum (FBS, SIGMA) at a carbon dioxide concentration of 5% and a temperature of 37° C.
Gene transfer into HeLa cells was performed using lipofection. For the HeLa cells under culture in a 24-well dish, 25 μL of Opti-MEM I (GIBCO) to which 0.5 μg of a plasmid had been added was added to a mixed solution of 2 μL of Lipofectamine 2000 (Invitrogen) and 25 μL of Opti-MEM I and incubated for five minutes at room temperature. This mixture was added to 500 μL of a medium 90-100% confluent with HEK293T cells and HeLa cells, and culturing was performed at 37° C. at a carbon dioxide concentration of 5%. Cell concentration was diluted to 1/10 5 to 8 hours after transfection, and cells were re-seeded on a glass dish. Cells were subjected to various imaging experiments after 24 hours had passed since transfection.
The 5D4 clone for which a fluorescence-increasing effect of the scFv on the fluorophore-DNP pair was observed was expressed in HEK293T cells as a fusion protein with the fluorescent protein TagRFP, and the state of expression of the scFv in the cells or the propriety of fluorescent labeling of cytoplasm by the fluorophore-DNP pair was evaluated. […]

5D4 (Y96F) = assay: Dissociation rate constant of anti-DNP scFv mutant and probe (stopped-flow, competition with DNP); format: binding, mouse
From the text: (§1) An amino acid mutation was introduced into an MBP-scFv protein coding region by circular PCR with pMalc5E-5D4 as a template, using a thermostable polymerase KOD Plus (TOYOBO) and forward and reverse primers including a codon modified to correspond to the desired amino acid mutation. The resultant linear PCR product was circularized using a Ligation Kit Version 2 (TAKARA), and an MBP-scFv mutant expression construct was obtained.
(§2) A flow channel in a stopped-flow apparatus (Bio-logic) was filled with a pretreatment liquid in which 1% w/v gelatin was dissolved in a phosphate buffer solution (pH 7.4) (PBS), and blocking was performed by leaving the apparatus at room temperature for at least 30 minutes, after which the flow channel was thoroughly washed with Milli-Q water. Using the apparatus, PBS in which MBP-5D4 or a variant thereof at a concentration of 100 nM or less and a probe at a concentration of 1 μM were dissolved, and PBS in which 100 μM DNP as a competitive substance was dissolved were mixed at a 1:1 ratio, and a fluorescence change was measured. At this time, the excitation/fluorescence wavelengths used were 510 nm/529-556 nm for the DCF probe and 650 nm/672-712 nm for the SiR probe, and measurement was performed under conditions of a temperature of 25-27C. […]

V94A mutant = assay: Dissociation rate of alanine-scanning mutant and probe (competition experiments with DNP); format: binding, mouse
From the text: as §1, §2

MBP-5D4 = assay: Dissociation rate constant of anti-DNP scFv and probe (stopped-flow, competition with DNP); format: binding, mouse; details: 6DCF-DNP and 5D4
Experimental: A flow channel in a stopped-flow apparatus (Bio-logic) was filled with a pretreatment liquid in which 1% w/v gelatin was dissolved in a phosphate buffer solution (pH 7.4) (PBS), and blocking was performed by leaving the apparatus at room temperature for at least 30 minutes, after which the flow channel was thoroughly washed with Milli-Q water. Using the apparatus, PBS in which MBP-5D4 or a variant thereof at a concentration of 100 nM or less and a probe at a concentration of 1 μM were dissolved, and PBS in which 100 μM DNP as a competitive substance was dissolved were mixed at a 1:1 ratio, and a fluorescence change was measured. At this time, the excitation/fluorescence wavelengths used were 510 nm/529-556 nm for the DCF probe and 650 nm/672-712 nm for the SiR probe, and measurement was performed under conditions of a temperature of 25-27C. A dissociation rate constant koff was calculated by fitting the fluorescence intensity I(t) observed with respect to time t using formula (1) below (FIG. 13 and Table 1).
I(t)=c1·e^−k^off^t+c2·t+c3 Formula (1):
In the formula cn (n=1-3) is a constant.

## CCN1/C(=C/C=C/C=C/C2=[N+](CCCCCC(=O)O)c3ccc(S(=O)(=O)O)cc3C2(C)C)C(C)(C)c2cc(S(=O)(=O)[O-])ccc21 [Cy5]
[1]
  quantum yield: 0.2-0.4

## CN(CC(=O)NCCOCCOCCNc1ccc([N+](=O)[O-])cc1[N+](=O)[O-])C(=O)c1ccccc1-c1c2cc(Cl)c(=O)cc-2oc2cc(O)c(Cl)cc12 [DCF-DNP, 2-(2,7-dichloro-6-hydroxy-3-oxo-3H-xanthene-9-yl)-N-(2-((2-(2-(2-((2,4-dinitrophenyl)amino)ethoxy)ethoxy)ethyl)amino)-2-oxoethyl)-N-methylbenzamide]
5D4
  increase in fluorescence intensity: about 10 times

## CC(=O)Oc1cc2c(cc1F)C1(OC(=O)c3ccc(C(=O)NCCOCCOCCNc4ccc([N+](=O)[O-])cc4[N+](=O)[O-])cc31)c1cc(F)c(OC(C)=O)cc1O2 [Probe 6OGdiac-DNP, 6-((2-(2-(2-((2,4-dinitrophenyl)amino)ethoxy)ethoxy)ethyl)carbamoyl)-2′,7′-difluoro-3-oxo-3H-spiro[isobenzofuran-1,9′-xanthene]-3′,6′-diyl diacetate]
[2]
  green fluorescence in cells: confirmed only in the cytoplasm of TagRFP-positive HEK293T cells

## Cy5.5
[1]
  quantum yield: 0.24

## O=C(NCCOCCOCCNc1ccc([N+](=O)[O-])cc1[N+](=O)[O-])c1ccc(C(=O)O)c(-c2c3cc(Cl)c(=O)cc-3oc3cc(O)c(Cl)cc23)c1 [Probe 6DCF-DNP, 2-(2,7-dichloro-6-hydroxy-3-oxo-3H-xanthene-9-yl)-4-((2-(2-(2-((2,4-dinitrophenyl)amino)ethoxy)ethoxy)ethyl)carbamoyl)benzoate]
5D4 (Y96F); Y96F mutant
  dissociation rate: 1.1 s⁻¹
5D4 (Y96F); Y96F mutant and 6DCF-DNP vs original 5D4
  dissociation rate made faster relative to original: 100 times
V94A mutant; V94A mutant and 6DCF-DNP
  dissociation rate: 0.31 s⁻¹
V94A mutant; V94A mutant and 6DCF-DNP vs original 5D4
  rate increase relative to the original rate: 25 times
MBP-5D4
  dissociation rate constant (koff) for a fluorescence-OFF state: 0.014 s⁻¹
